Measured values published in the supplement of paper PMC10307832.

Legend:
Assay in all cases: relative viability (nuclei count vs DMSO), 5 days (fraction); higher = more cells survive
QS11 + Foretinib = compound: C1CC2=C(C1)C=C(C=C2)OC3=NC(=C4C(=N3)N(C=N4)CC5=CC=C(C=C5)C6=CC=CC=C6)N[C@@H](CC7=CC=CC=C7)CO [QS11] + COc1cc2c(Oc3ccc(NC(=O)C4(C(=O)Nc5ccc(F)cc5)CC4)cc3F)ccnc2cc1OCCCN1CCOCC1 [Foretinib] (partner 0.25 µM)
In short: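 Lung cancer cell lines in 1536-well plates got either a single drug or a fixed anchor-drug dose together with five library-drug doses (not always all listed) in √10 steps, by pin tool, on the day after seeding. Nuclei were counted after 5 days, and relative viability is the treated-to-vehicle ratio of nuclei counts. Values are medians of duplicate plates.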

Darinaparsin = compound: C[As](C)SC[C@H](NC(=O)CC[C@H](N)C(=O)O)C(=O)NCC(=O)O [Darinaparsin]
In short: (§1)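 MetaXpress counted nuclei in 4× images of lung cancer cell lines that had been fixed, permeabilised and Hoechst-stained in one step. Before that, cells in 1536-well plates were kept overnight at 37 °C, pinned with five √10-spaced library-drug doses on vehicle-anchored plates, and cultured 5 days without medium change. Viability takes treated-well nuclei over vehicle-well nuclei and uses the median across plates. Plates were accepted only at control CV below 25% and at least one doubling.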

QS11 = compound: C1CC2=C(C1)C=C(C=C2)OC3=NC(=C4C(=N3)N(C=N4)CC5=CC=C(C=C5)C6=CC=CC=C6)N[C@@H](CC7=CC=CC=C7)CO [QS11]
In short: as §1

AZ628 = compound: CC1=C(C=C(C=C1)NC(=O)C2=CC(=CC=C2)C(C)(C)C#N)NC3=CC4=C(C=C3)N=CN(C4=O)C [AZ628]
In short: as §1

| Cell Line | relative viability (QS11 + Foretinib; first compound 0.08 µM) | relative viability (QS11 + Foretinib; first compound 0.253 µM) | relative viability (QS11 + Foretinib; first compound 0.8 µM) | relative viability (QS11 + Foretinib; first compound 2.53 µM) | relative viability (QS11 + Foretinib; first compound 8 µM) | relative viability (Darinaparsin; 0.08 µM) | relative viability (Darinaparsin; 0.8 µM) | relative viability (Darinaparsin; 2.53 µM) | relative viability (Darinaparsin; 8 µM) | relative viability (QS11; 0.08 µM) | relative viability (QS11; 0.253 µM) | relative viability (QS11; 0.8 µM) | relative viability (QS11; 2.53 µM) | relative viability (QS11; 8 µM) | relative viability (AZ628; 0.08 µM) | relative viability (AZ628; 0.253 µM) | relative viability (AZ628; 0.8 µM) | relative viability (AZ628; 2.53 µM) | relative viability (AZ628; 8 µM) |
| --- | --- | --- | --- | --- | --- | --- | --- | --- | --- | --- | --- | --- | --- | --- | --- | --- | --- | --- | --- |
| NCI-H1650 | 1 | 1.25 | 0.799 | 1.14 | 1.19 | 0.971 | 0.951 | 0.833 | 1.03 | 0.941 | 0.786 | 0.72 | 0.962 | 0.867 | 1.13 | 1.1 | 1.09 | 0.904 | 0.888 |
| NCI-H1651 | 0.787 | 0.901 | 0.822 | 0.671 | 0.698 | 1.15 | 1 | 0.942 | 1.18 | 0.906 | 1.01 | 0.857 | 0.988 | 0.899 | 0.986 | 1.01 | 0.986 | 1.08 | 1.12 |
| NCI-H1666 | 0.908 | 1.05 | 0.653 | 0.85 | 0.582 | 1.04 | 0.948 | 1.24 | 1.05 | 0.935 | 0.984 | 0.776 | 0.793 | 0.667 | 0.965 | 0.826 | 0.885 | 0.813 | 0.901 |
| NCI-H1703 | 0.306 | 0.309 | 0.333 | 0.422 | 0.322 | 1.43 | 1.09 | 0.889 | 1.07 | 0.94 | 0.908 | 0.901 | 1.04 | 0.923 | 0.597 | 0.395 | 0.32 | 0.303 | 0.245 |
| NCI-H1734 | 0.842 | 0.932 | 0.91 | 0.772 | 0.713 | 1.06 | 0.993 | 0.971 | 1.16 | 0.99 | 1.01 | 0.945 | 0.874 | 0.725 | 1.08 | 0.974 | 0.919 | 0.913 | 0.514 |
| NCI-H1755 | 0.962 | 0.841 | 0.566 | 0.732 | 0.683 | 1.12 | 0.964 | 0.945 | 1.13 | 1.03 | 0.983 | 0.638 | 0.861 | 0.783 | 0.992 | 1.02 | 0.97 | 0.989 | 0.948 |
| NCI-H1793 | 0.796 | 0.657 | 0.767 | 0.573 | 0.935 | 0.981 | 0.934 | 0.707 | 1.02 | 0.866 | 0.807 | 1.05 | 1.07 | 1.09 | 1.1 | 0.829 | 0.957 | 0.783 | 0.61 |
| NCI-H1915 | 1.17 | 1.18 |  | 1.07 | 1.01 | 1.04 | 0.964 | 0.965 | 1.1 | 0.993 | 1.04 |  | 0.872 | 0.871 | 0.994 | 0.939 | 0.796 | 0.731 | 0.464 |
| NCI-H1944 | 0.886 | 0.967 |  | 0.641 | 0.671 | 1 | 0.997 | 0.959 | 1.14 | 0.999 | 0.947 |  | 0.958 | 0.884 | 1.06 | 0.917 | 0.792 | 0.729 | 0.727 |
| NCI-H1975 | 1.02 | 1.02 | 1.04 | 1.32 | 1.35 | 0.992 | 1.01 | 0.906 | 1.05 | 0.954 | 0.881 | 1.04 | 1.23 | 1.34 | 0.927 | 0.85 | 0.889 | 0.94 | 0.768 |
| NCI-H1993 | 0.737 | 0.636 | 0.696 | 0.787 | 0.628 | 1.02 | 0.885 | 1.03 | 0.922 | 1.02 | 0.884 | 0.918 | 0.992 | 0.824 | 0.995 | 0.848 | 0.835 | 0.735 | 0.515 |
| NCI-H2009 | 1.24 | 1.24 | 1.09 | 0.98 | 1.11 | 1.12 | 1.03 | 0.949 | 1.03 | 1.03 | 1.01 | 0.756 | 0.902 | 0.894 | 0.948 | 0.933 | 0.598 | 0.711 | 0.379 |
| NCI-H2023 | 0.721 | 0.883 | 0.686 | 0.999 | 0.852 | 1.08 | 0.952 | 0.992 | 1.23 | 1.04 | 0.987 | 0.895 | 1.09 | 0.805 | 1.11 | 1.03 | 0.974 | 0.915 | 0.674 |
| NCI-H2085 | 1.01 | 0.886 | 0.911 | 1.02 | 1 | 0.998 | 0.985 | 0.958 | 0.999 | 0.946 | 0.953 | 0.968 | 1 | 1.09 | 1.08 | 0.98 | 1 | 1.03 | 0.882 |
| NCI-H2087 | 1.07 | 1.15 |  | 1.15 | 1.06 | 1.14 | 1.14 | 1.01 | 1.13 | 1.02 | 0.937 | 0.854 | 0.874 | 0.898 | 0.92 | 0.671 | 0.729 | 0.814 | 0.336 |
| NCI-H2126 | 1.18 | 1.22 | 1.07 | 1.1 | 1.04 | 1.1 | 1.03 | 0.956 | 1.12 | 0.994 | 0.944 | 0.905 | 0.965 | 0.799 | 1.04 | 1 | 0.888 | 1.02 | 0.985 |
| NCI-H2170 | 1.02 | 0.987 | 0.77 | 1.06 | 1.06 | 1.11 | 0.978 | 0.845 | 1.18 | 1.04 | 1 | 0.728 | 1.05 | 1.2 | 1.01 | 0.964 | 0.936 | 1.02 | 0.983 |
| NCI-H2228 | 0.835 | 0.827 | 0.755 | 1 | 1.03 | 1.39 | 1.18 | 0.915 | 1.35 | 0.902 | 1.01 | 0.97 | 1.09 | 1.32 | 0.994 | 1.16 | 0.968 | 1.02 | 0.84 |
| NCI-H2342 | 1.02 | 1.07 | 1.07 | 1.02 | 1.19 | 0.953 | 0.888 | 0.939 | 1.08 | 0.888 | 1.02 | 1.07 | 0.998 | 0.998 | 1.1 | 0.898 | 1.02 | 0.935 | 0.995 |
| NCI-H2347 | 0.825 | 1.18 | 1.01 | 0.942 | 0.994 | 1.05 | 0.961 | 0.994 | 1.19 | 0.938 | 1.05 | 0.873 | 0.906 | 0.906 | 0.775 | 0.895 | 0.854 | 0.76 | 0.485 |
| NCI-H2405 | 1 | 0.986 | 1 | 1.08 | 1.16 | 1.09 | 0.926 | 0.975 | 1.04 | 0.976 | 0.992 | 0.875 | 1.09 | 1.07 | 0.724 | 0.476 | 0.612 | 0.67 | 0.558 |
| NCI-H3122 | 0.979 | 1.08 |  | 1.05 | 0.749 | 1.06 | 1.01 | 1.01 | 1.16 | 1.03 | 1.07 |  | 1.11 | 0.972 | 0.956 | 0.736 | 0.648 | 0.598 | 0.403 |
| PC-3 [JPC-3] | 0.972 | 1.07 | 0.991 | 1.03 | 0.982 | 1.14 | 1.06 | 1.05 | 1.08 | 0.965 | 1.04 | 0.956 | 1.04 | 1.02 | 1.05 | 1.06 | 1.16 | 1.11 | 0.951 |
| PC-14 | 1.11 | 0.95 | 0.777 | 0.889 | 1.06 | 1.05 | 0.97 | 1.02 | 1.22 | 0.821 | 1.06 | 0.888 | 1.04 | 0.895 | 1.07 | 0.938 | 0.907 | 0.959 | 0.674 |
| RERF-LC-KJ | 0.883 | 0.86 | 0.62 | 0.79 | 0.834 | 1.05 | 1.07 | 0.944 | 1.12 | 0.98 | 0.954 | 0.912 | 0.974 | 0.981 | 1.01 | 0.981 | 0.883 | 0.965 | 0.887 |
| SK-LU-1 | 0.782 | 0.874 | 0.68 | 0.784 | 0.641 | 1.27 | 0.876 | 0.821 | 1.22 | 0.968 | 1.07 | 0.984 | 0.993 | 0.97 | 0.653 | 0.901 | 0.931 | 0.892 | 0.769 |
| SK-MES-1 | 0.985 | 0.783 | 0.918 | 0.605 | 0.778 | 1.15 | 1.05 | 0.948 | 1.26 | 1.12 | 0.952 | 0.941 | 0.95 | 0.946 | 0.945 | 0.99 | 0.923 | 0.92 | 0.595 |
| SW 900 | 0.981 | 0.875 | 0.844 | 0.774 | 0.8 | 0.965 | 0.669 | 0.994 | 0.942 | 0.705 | 0.688 | 0.809 | 0.663 | 0.521 | 1.13 | 0.865 | 1.14 | 0.803 | 0.889 |
| SW 1573 | 0.862 | 0.926 | 1.02 | 0.853 | 1.07 | 1.21 | 0.971 | 0.966 | 1.19 | 1.04 | 0.961 | 1.01 | 0.896 | 0.655 | 0.984 | 0.863 | 0.696 | 0.812 | 0.564 |
| UMC-11 | 1.13 | 1.1 | 1.07 | 1.32 | 1.06 | 0.997 | 0.949 | 0.926 | 1.03 | 0.952 | 0.979 | 0.992 | 1.17 | 1.22 | 1.07 | 0.974 | 0.992 | 0.943 | 1.08 |
